US20230058171A1, “NEW ORAL PHARMACEUTICAL COMPOSITION FOR CANCER THERAPY” (BOEHRINGER INGELHEIM INTERNATIONAL GMBH, priority 2021, published 2023)
Like-named read-outs stand apart in the source and are kept apart here.

Test: Preliminary pharmacokinetics in trial 1403-0001 (Arm A D1 q3w, Arm B D1 D8 q4w)
Assay type: in vivo, human
Conditions: for % AUCtz-∞ / AUC0-∞, norm / CL/F / Cmax, norm / AUC(0-inf) / Cmax / Vd/F / half-life: gMean; for Cmax, norm (gMean) / % AUCtz-∞ (gMean) / AUC0-∞, norm, gMean (gCV [%]) / CL/F (gMean): Arm A D1 q3w; for AUC(0-inf) / Cmax / Vd/F / half-life / Tmax: human, plasma, oral; for AUC(0-inf): read-out: AUC0-∞; for Cmax: read-out: Cmax; for Vd/F: read-out: Vz/F; for half-life: read-out: t1/2 (converted); for Tmax: median, read-out: tmax
Excerpt: Preliminary PK data were available from the first 45 treated patients in study 1403-0001. The exploratory PK analysis is based on planned blood sampling time-points and the results are subject to change because not all samples from these patients have been analyzed yet. Therefore, AUCs may be incomplete. In addition, information on the absorption, distribution, and elimination of the MDM2 antagonist of formula I are descriptive given the limited exploratory PK results available up to this point in time.
Consequently the preliminary PK results support the dose selection of 45 mg (and alternatively even of 30 mg) combined with the once in three weeks (D1 q3w) dose regimen. The tmax of the MDM2 antagonist of formula I is generally between 4 and 6 hours after tablet intake.

[1] = 5 mg, Day 1, D1 D8 q4w (Arm B), N=3
[2] = 5 mg, Day 8, D1 D8 q4w (Arm B), N=3
[3] = 10 mg, Day 1, D1 D8 q4w (Arm B), N=3
[4] = 10 mg, Day 8, D1 D8 q4w (Arm B), N=3
[5] = 15 mg, Day 1, D1 D8 q4w (Arm B), N=3
[6] = 15 mg, Day 8, D1 D8 q4w (Arm B), N=2
[7] = 20 mg, Day 1, D1 D8 q4w (Arm B), N=3
[8] = 20 mg, Day 8, D1 D8 q4w (Arm B), N=3
[9] = 30 mg, Day 1, D1 D8 q4w (Arm B), N=4
[10] = 30 mg, Day 8, D1 D8 q4w (Arm B), N=3
[11] = 45 mg, Day 1, D1 D8 q4w (Arm B), N=2
[12] = 60 mg, Day 1, D1 D8 q4w (Arm B), N=2

Cc1c(C(=O)O)ccc2c3n(nc12)[C@@H]1[C@H](C3)N(CC2CC2)[C@@]2(C(=O)Nc3cc(Cl)ccc32)[C@H]1c1cccc(Cl)c1F [MDM2-antagonist of formula I, (2′S,3′S,3a'S,10a'S)-6-chloro-3′-(3-chloro-2-fluorophenyl)-1′-(cyclopropylmethyl)-6′-methyl-2-oxo-1,2,3′,3a′,10′,10a′-hexahydro-1′H-spiro[indole-3,2′-pyrrolo[2′,3′:4,5]pyrrolo[1,2-b]indazole]-7′-carboxylic acid]
% AUCtz-∞ [1]: 10.2%
AUC0-∞, norm [1]: 3530 nmol·h/L/mg
CL/F [1]: 7.99 mL/min
Cmax, norm [1]: 51.9 nmol/L/mg
% AUCtz-∞ [2]: 30.2%
AUC0-∞, norm [2]: 3860 nmol·h/L/mg
CL/F [2]: 7.31 mL/min
Cmax, norm [2]: 67.2 nmol/L/mg
% AUCtz-∞ [3]: 10.8%
AUC0-∞, norm [3]: 5230 nmol·h/L/mg
CL/F [3]: 5.39 mL/min
Cmax, norm [3]: 63.8 nmol/L/mg
% AUCtz-∞ [4]: 31.6%
AUC0-∞, norm [4]: 4840 nmol·h/L/mg
CL/F [4]: 5.82 mL/min
Cmax, norm [4]: 71.4 nmol/L/mg
% AUCtz-∞ [5]: 2.89%
AUC0-∞, norm [5]: 2520 nmol·h/L/mg
CL/F [5]: 11.2 mL/min
Cmax, norm [5]: 55.4 nmol/L/mg
% AUCtz-∞ [6]: 14.8%
AUC0-∞, norm [6]: 1720 nmol·h/L/mg
CL/F [6]: 16.4 mL/min
Cmax, norm (15 mg, Day 8, D1 D8 q4w (Arm B), N=3): 51.7 nmol/L/mg
% AUCtz-∞ [7]: 8.63%
AUC0-∞, norm [7]: 4440 nmol·h/L/mg
CL/F [7]: 6.34 mL/min
Cmax, norm [7]: 68.4 nmol/L/mg
% AUCtz-∞ [8]: 25.9%
AUC0-∞, norm [8]: 3050 nmol·h/L/mg
CL/F [8]: 9.22 mL/min
Cmax, norm [8]: 60.9 nmol/L/mg
% AUCtz-∞ [9]: 6.72%
AUC0-∞, norm [9]: 2660 nmol·h/L/mg
CL/F [9]: 10.6 mL/min
Cmax, norm [9]: 48.0 nmol/L/mg
% AUCtz-∞ [10]: 18.9%
AUC0-∞, norm [10]: 2160 nmol·h/L/mg
CL/F [10]: 13.0 mL/min
Cmax, norm [10]: 44.3 nmol/L/mg
% AUCtz-∞ [11]: 4.72%
AUC0-∞, norm [11]: 2150 nmol·h/L/mg
CL/F [11]: 13.1 mL/min
Cmax, norm [11]: 51.7 nmol/L/mg
% AUCtz-∞ [12]: 7.08%
AUC0-∞, norm [12]: 1460 nmol·h/L/mg
CL/F [12]: 19.3 mL/min
Cmax, norm [12]: 32.7 nmol/L/mg
Cmax, norm (60 mg, Day 8, D1 D8 q4w (Arm B), N=2): 31.5 nmol/L/mg
Cmax, norm (gMean) (20 mg, N=2): 58.2 nmol/L/mg
% AUCtz-∞ (gMean) (30 mg, N=3): 24.6%
AUC0-∞, norm, gMean (gCV [%]) (30 mg, N=3): 3760 (46.8) nmol*h/L/mg
CL/F (gMean) (30 mg, N=3): 7.50 mL/min
Cmax, norm (gMean) (30 mg, N=3): 96.4 nmol/L/mg
% AUCtz-∞ (gMean) (45 mg, N=6): 29.2%
AUC0-∞, norm, gMean (gCV [%]) (45 mg, N=6): 3040 (53.6) nmol*h/L/mg
CL/F (gMean) (45 mg, N=6): 9.28 mL/min
Cmax, norm (gMean) (45 mg, N=6): 60.2 nmol/L/mg
% AUCtz-∞ (gMean) (50 mg, N=4): 19.7%
AUC0-∞, norm, gMean (gCV [%]) (50 mg, N=4): 6280 (37.3) nmol*h/L/mg
CL/F (gMean) (50 mg, N=4): 4.49 mL/min
Cmax, norm (gMean) (50 mg, N=4): 74.8 nmol/L/mg
% AUCtz-∞ (gMean) (60 mg, N=6): 3.71%
AUC0-∞, norm, gMean (gCV [%]) (60 mg, N=6): 2710 (33.4) nmol*h/L/mg
CL/F (gMean) (60 mg, N=6): 10.4 mL/min
Cmax, norm (gMean) (60 mg, N=7): 54.5 nmol/L/mg
% AUCtz-∞ (gMean) (80 mg, N=2): 2.54%
AUC0-∞, norm, gMean (gCV [%]) (80 mg, N=2): 2570 (29.2) nmol*h/L/mg
CL/F (gMean) (80 mg, N=2): 11.0 mL/min
Cmax, norm (gMean) (80 mg, N=2): 49.2 nmol/L/mg
AUC(0-inf) [1]: 17.6 µM·h
Cmax [1]: 260 nM
Vd/F [1]: 38.2 L
half-life [1]: 55.3 h
Tmax [1]: 4 h
AUC(0-inf) [2]: 19.3 µM·h
Cmax [2]: 336 nM
Vd/F [2]: 29.2 L
half-life [2]: 46.2 h
Tmax [2]: 4 h
AUC(0-inf) [3]: 52.3 µM·h
Cmax [3]: 638 nM
